For 43 compounds, inhibition and IC50 results are on record in ChEMBL document CHEMBL4613266, “Discovery and Structure Relationships of Salicylanilide Derivatives as Potent, Non-acidic P2X1 Receptor Antagonists” (J Med Chem, 2020).

Holding throughout (assay type): cell-based
The target in assay [1] is T1, P2X purinoceptor 1 (Homo sapiens) (UniProt P51575).
T1 sequence (whole entry): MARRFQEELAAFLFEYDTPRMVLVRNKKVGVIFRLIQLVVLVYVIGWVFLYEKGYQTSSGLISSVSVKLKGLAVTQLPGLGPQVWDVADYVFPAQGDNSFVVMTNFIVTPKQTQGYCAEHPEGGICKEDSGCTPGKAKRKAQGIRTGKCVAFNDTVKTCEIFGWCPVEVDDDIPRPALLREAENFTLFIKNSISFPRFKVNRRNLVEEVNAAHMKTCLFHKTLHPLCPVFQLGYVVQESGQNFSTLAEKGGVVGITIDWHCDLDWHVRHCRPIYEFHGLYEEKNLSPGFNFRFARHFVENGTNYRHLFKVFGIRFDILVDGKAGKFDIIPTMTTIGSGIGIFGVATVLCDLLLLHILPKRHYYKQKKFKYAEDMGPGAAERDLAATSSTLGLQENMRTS
As to the kind of experiment: Antagonist activity at non-desensitizing human P2X1 receptor ( P2X2/P2X1 chimera) expressed in human 1321N1 cells assessed as inhibition of ATP-induced calcium influx at 10 uM pre-incubated for 30 mins before ATP stimulation by FLIPR assay relative to control.

The target in a further assay is P2X purinoceptor 1 (Homo sapiens, UniProt P51575). The experiment in a line: Antagonist activity at non-desensitizing human P2X1 receptor ( P2X2/P2X1 chimera) expressed in human 1321N1 cells assessed as inhibition of ATP-induced calcium influx pre-incubated for 30 mins before ATP stimulation by FLIPR assay relative to control.
A further assay has as its target T2, P2X purinoceptor 2 (Homo sapiens, UniProt Q9UBL9).
T2 sequence (Q9UBL9 whole entry): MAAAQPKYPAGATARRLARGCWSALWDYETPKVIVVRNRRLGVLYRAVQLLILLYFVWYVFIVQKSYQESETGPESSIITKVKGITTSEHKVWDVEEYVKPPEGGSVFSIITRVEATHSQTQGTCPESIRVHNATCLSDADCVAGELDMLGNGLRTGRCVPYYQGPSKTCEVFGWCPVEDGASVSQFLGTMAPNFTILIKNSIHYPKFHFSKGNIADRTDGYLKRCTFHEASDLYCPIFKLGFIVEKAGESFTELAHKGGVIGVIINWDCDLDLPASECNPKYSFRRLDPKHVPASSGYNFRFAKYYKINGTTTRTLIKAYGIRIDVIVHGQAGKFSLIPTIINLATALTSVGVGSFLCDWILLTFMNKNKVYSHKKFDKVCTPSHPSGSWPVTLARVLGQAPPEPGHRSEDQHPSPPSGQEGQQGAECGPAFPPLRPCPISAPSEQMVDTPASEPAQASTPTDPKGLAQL
The experiment in a line: Antagonist activity at human P2X2 receptor expressed in human 1321N1 cells assessed as inhibition of ATP-induced cytosolic calcium influx preincubated for 30 mins followed by ATP addition by Fluo-4 AM dye-based fluorescence assay.

The next assay addresses T3, P2X purinoceptor 7 (Homo sapiens, UniProt Q99572).
T3 sequence (Q99572 whole entry): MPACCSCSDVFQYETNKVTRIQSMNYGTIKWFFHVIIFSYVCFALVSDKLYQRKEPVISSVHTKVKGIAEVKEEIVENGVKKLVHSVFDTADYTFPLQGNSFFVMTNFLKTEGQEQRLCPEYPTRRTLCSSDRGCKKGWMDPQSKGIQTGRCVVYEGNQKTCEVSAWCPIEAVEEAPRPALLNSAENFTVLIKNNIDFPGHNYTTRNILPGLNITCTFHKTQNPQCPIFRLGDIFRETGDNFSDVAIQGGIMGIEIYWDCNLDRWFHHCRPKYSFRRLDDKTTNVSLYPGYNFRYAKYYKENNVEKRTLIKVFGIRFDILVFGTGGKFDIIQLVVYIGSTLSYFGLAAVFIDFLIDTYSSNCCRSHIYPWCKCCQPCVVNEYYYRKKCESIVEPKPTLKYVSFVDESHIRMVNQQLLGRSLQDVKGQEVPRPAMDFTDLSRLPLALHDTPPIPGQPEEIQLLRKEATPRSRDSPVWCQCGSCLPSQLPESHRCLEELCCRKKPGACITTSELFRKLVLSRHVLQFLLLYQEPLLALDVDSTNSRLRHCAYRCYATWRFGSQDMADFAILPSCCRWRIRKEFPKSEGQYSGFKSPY
The experiment in a line: Antagonist activity at human P2X7 receptor expressed in human 1321N1 cells assessed as inhibition of ATP-induced cytosolic calcium influx preincubated for 30 mins followed by ATP addition by Fluo-4 AM dye-based fluorescence assay.

Another assay deals with T4, P2X purinoceptor 4 (Homo sapiens, UniProt Q99571).
T4 sequence (Q99571 whole entry): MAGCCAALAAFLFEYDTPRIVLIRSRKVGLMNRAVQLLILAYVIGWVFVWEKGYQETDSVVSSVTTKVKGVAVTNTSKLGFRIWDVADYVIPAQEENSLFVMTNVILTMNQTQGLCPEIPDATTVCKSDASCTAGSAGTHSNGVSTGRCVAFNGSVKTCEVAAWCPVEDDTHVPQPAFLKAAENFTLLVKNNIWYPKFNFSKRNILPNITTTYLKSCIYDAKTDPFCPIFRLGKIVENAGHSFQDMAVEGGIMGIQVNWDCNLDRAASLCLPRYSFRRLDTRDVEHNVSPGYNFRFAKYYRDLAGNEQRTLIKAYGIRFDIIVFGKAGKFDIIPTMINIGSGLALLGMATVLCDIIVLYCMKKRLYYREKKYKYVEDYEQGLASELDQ
The experiment in a line: Antagonist activity at human P2X4 receptor expressed in human 1321N1 cells assessed as inhibition of ATP-induced cytosolic calcium influx preincubated for 30 mins followed by ATP addition by Fluo-4 AM dye-based fluorescence assay.

With `O=C(Nc1ccc(F)cc1)c1cc(Cl)ccc1O`, the inhibition in assay [1] was 93%. In addition, the IC50 at P2X purinoceptor 1 worked out at 0.907 µM.
As to `O=C(Nc1cc(C(F)(F)F)cc(C(F)(F)F)c1)c1c(O)cccc1O`, the inhibition in assay [1] stood at 75%. Besides, the IC50 at P2X purinoceptor 1 worked out at 8 µM.
In the same order, the values of `Cc1cc(C)cc(NC(=O)c2cc(Cl)ccc2O)c1` are 64% and 0.323 µM.
In the same order, the values of `O=C(Nc1cc(C(F)(F)F)cc(C(F)(F)F)c1)c1cccc([N+](=O)[O-])c1O` are 112% and 0.869 µM.
In the case of `CC(C)(C)c1cccc(NC(=O)c2cc(Cl)ccc2O)c1`, in assay [1], the inhibition is 100%. Moreover, at P2X purinoceptor 1, the IC50 was found to be 0.567 µM.
In the case of `COc1cc(NC(=O)c2cc(Cl)ccc2O)cc(OC)c1`, in assay [1], the inhibition was determined as 80%. The IC50 on P2X purinoceptor 1 was 0.915 µM.
Regarding `O=C(Nc1cc(C(F)(F)F)cc(C(F)(F)F)c1)c1ccccc1Cl`, the inhibition in assay [1] amounted to 100%. Further, at P2X purinoceptor 1, the IC50 came to 539 µM.
`O=C(Nc1cc(C(F)(F)F)cc(C(F)(F)F)c1)c1cc(O)ccc1O`: the inhibition in assay [1] was determined as 109%. The 50% inhibitory concentration (IC50) at P2X purinoceptor 1 stood at 3.41 µM.
In the case of `O=C(Nc1cc(C(F)(F)F)cc(C(F)(F)F)c1)c1ccccc1[N+](=O)[O-]`, the inhibition in assay [1] stood at 61%. On P2X purinoceptor 1, the IC50 worked out at 8.6 µM.
With `O=C(Nc1cc(O)cc(O)c1)c1cc(Cl)ccc1O`, the inhibition in assay [1] worked out at 4%. Also, the IC50 on P2X purinoceptor 1 was greater than 10 µM.
`CN1CCN(C(=O)Nc2cc(C(F)(F)F)cc(C(F)(F)F)c2)C1=O`: the inhibition in assay [1] stood at 0%. Further, on P2X purinoceptor 1, the IC50 is greater than 10 µM.
Regarding `O=C(Nc1ccc2cc[nH]c2c1)c1ccccc1O`, the inhibition in assay [1] was 11%. The IC50 on P2X purinoceptor 1 was greater than 10 µM.
Regarding `Cc1ccc(O)c(C(=O)Nc2cc(C(F)(F)F)cc(C(F)(F)F)c2)c1`, in assay [1], the inhibition was determined as 91%. For the same compound, the IC50 on P2X purinoceptor 1 came to 0.236 µM.
In the same order, the values of `O=C(Nc1cc(C(F)(F)F)cc(C(F)(F)F)c1)c1ccccc1CO` are 37% and greater than 10 µM.
For the compound `Nc1ccccc1C(=O)Nc1cc(C(F)(F)F)cc(C(F)(F)F)c1`, the inhibition in assay [1] was 67%. In addition, the IC50 at P2X purinoceptor 1 stood at 9.93 µM.
As for `O=C(Nc1cccc([N+](=O)[O-])c1)c1cc(Cl)ccc1O`, the inhibition in assay [1] amounted to 65%. Moreover, on P2X purinoceptor 1, the IC50 amounted to 0.172 µM.
Consider `Oc1ccc(Cl)cc1CNc1cc(C(F)(F)F)cc(C(F)(F)F)c1`, for which, in assay [1], the inhibition worked out at 122%. In addition, the IC50 at P2X purinoceptor 1 was 3.82 µM.
Take `O=C(Nc1cc(C(F)(F)F)cc(C(F)(F)F)c1)c1cc([N+](=O)[O-])ccc1O`: the inhibition in assay [1] came to 99%. Further, on P2X purinoceptor 1, the IC50 was 2.53 µM.
`O=C(Nc1cc(C(F)(F)F)cc(C(F)(F)F)c1)c1cccc(O)c1`: the inhibition in assay [1] was 100%. On P2X purinoceptor 1, the IC50 worked out at 4.91 µM.
In the case of `O=C(Nc1cc(Cl)ccc1O)c1cc(C(F)(F)F)cc(C(F)(F)F)c1`, in assay [1], the inhibition was found to be 48%. In addition, the IC50 on P2X purinoceptor 1 was no less than 10 µM.
For `O=C(Nc1cccc(C(F)(F)F)c1)c1ccccc1O` [SALFLUVERINE], the inhibition in assay [1] turned out to be 75%. Besides, the IC50 at P2X purinoceptor 1 was 1.3 µM.
As for `O=C(Nc1cc(C(F)(F)F)cc(C(F)(F)F)c1)c1cnccc1O`, in assay [1], the inhibition was determined as 31%. For the same compound, the IC50 at P2X purinoceptor 1 was greater than 10 µM.
Regarding `O=C(Nc1ccccc1C(F)(F)F)c1cc(Cl)ccc1O`, in assay [1], the inhibition was 28%. The IC50 at P2X purinoceptor 1 was greater than 10 µM.
As to `O=C(Nc1ccc(Cl)cc1)c1cc(Cl)ccc1O`, the inhibition in assay [1] is 55%. The half-inhibitory concentration (IC50) at P2X purinoceptor 1 is 0.199 µM.
`NS(=O)(=O)c1cccc(NC(=O)c2ccccc2O)c1`: the inhibition in assay [1] was 21%. Besides, the IC50 on P2X purinoceptor 1 was greater than 10 µM.
`COc1ccc(O)c(C(=O)Nc2cc(C(F)(F)F)cc(C(F)(F)F)c2)c1`: the inhibition in assay [1] is 91%. For the same compound, the IC50 at P2X purinoceptor 1 worked out at 0.755 µM.
Consider `C#Cc1cccc(NC(=O)c2cc(Cl)ccc2O)c1`, for which, in assay [1], the inhibition was determined as 60%. Besides, the IC50 on P2X purinoceptor 1 was determined as 1.34 µM.
Regarding `O=C(Nc1ccc2ncccc2c1)c1ccccc1O`, the inhibition in assay [1] was 28%. For the same compound, the half-inhibitory concentration (IC50) at P2X purinoceptor 1 is greater than 10 µM.
On to `O=C(NCc1cc(C(F)(F)F)cc(C(F)(F)F)c1)c1cc(Cl)ccc1O`, for which the inhibition in assay [1] was determined as 111%. The IC50 on P2X purinoceptor 1 amounted to 1.53 µM.
As to `O=C(Nc1cc(C(F)(F)F)cc(C(F)(F)F)c1)c1cccc(C(F)(F)F)c1`, the inhibition in assay [1] came out at 63%. For the same compound, the IC50 on P2X purinoceptor 1 was 7.18 µM.
In the case of `O=C(Nc1cc(C(F)(F)F)cc(C(F)(F)F)c1)c1cc(F)ccc1O`, the inhibition in assay [1] came out at 96%. Further, the IC50 on P2X purinoceptor 1 is 1.66 µM.
Consider `O=C(Nc1cc([N+](=O)[O-])cc([N+](=O)[O-])c1)c1cc(Cl)ccc1O`, for which the inhibition in assay [1] was determined as 62%. The IC50 on P2X purinoceptor 1 was 4.35 µM.
In the case of `O=C(Nc1cccnc1)c1ccccc1O`, the inhibition in assay [1] was 3%. Further, the IC50 at P2X purinoceptor 1 is greater than 10 µM.
As to `N#Cc1ccc(NC(=O)c2cc(Cl)ccc2O)cc1`, the inhibition in assay [1] turned out to be 38%. In addition, at P2X purinoceptor 1, the IC50 is greater than 10 µM.
Consider `O=C(Nc1cccc(S(=O)(=O)C(F)(F)F)c1)c1cc(Cl)ccc1O`, for which the inhibition in assay [1] was 83%. Besides, at P2X purinoceptor 1, the IC50 came out at 0.335 µM.
`O=C(Nc1ccc([N+](=O)[O-])cc1)c1cc(Cl)ccc1O`: the inhibition in assay [1] was determined as 43%.
As for `O=C(Nc1cc(C(F)(F)F)cc(C(F)(F)F)c1)c1cccc(Cl)c1`, in assay [1], the inhibition worked out at 82%. For the same compound, the IC50 at P2X purinoceptor 1 amounted to 139 µM.
Regarding `O=C(Nc1cc(C(F)(F)F)cc(C(F)(F)F)c1)c1cccnc1O`, the inhibition in assay [1] is 9%. The IC50 at P2X purinoceptor 1 is greater than 10 µM.
In the same order, the values of `O=C(CNc1cc(C(F)(F)F)cc(C(F)(F)F)c1)c1cc(Cl)ccc1O` are 104% and 1.79 µM.
Regarding `Cc1cccc(C(=O)Nc2cc(C(F)(F)F)cc(C(F)(F)F)c2)c1O`, in assay [1], the inhibition is 102%. In addition, the IC50 at P2X purinoceptor 1 is 0.655 µM.
On to `O=C(Nc1cc(C(F)(F)F)cc(C(F)(F)F)c1)c1ccncc1O`, for which, in assay [1], the inhibition stood at 60%. For the same compound, the IC50 on P2X purinoceptor 1 amounted to 5.25 µM.
As for `CN(C(=O)c1cc(Cl)ccc1O)c1cc(C(F)(F)F)cc(C(F)(F)F)c1`, the inhibition in assay [1] turned out to be 88%. The half-maximal inhibitory concentration (IC50) on P2X purinoceptor 1 worked out at 4.06 µM.
For the compound `O=C(Nc1cc(C(F)(F)F)cc(C(F)(F)F)c1)c1ccc2ccccc2c1O`, the IC50 on P2X purinoceptor 2 is greater than 10 µM; on P2X purinoceptor 7, 0.797 µM; at P2X purinoceptor 4 it was 0.729 µM; at P2X purinoceptor 1, 0.341 µM.

Broadly, the inhibition is the relative decrease from the control value, in per cent. The term IC50 denotes the concentration that inhibits the measured activity by half.
